{"source": "paper PMC7614687", "about": "“Modulation of the substrate specificity of the kinase PDK1 by distinct conformations of the full-length protein*” (Science signaling, 2023)", "key": {"GST-PDK1_1-556": {"biological_target": "T1, GST-PDK1_1-556 (Homo sapiens, UniProt O15530)", "T1 construct": "made in house; host or cells: HEK293 cells (transient transfection of pEBG2T); peptide synthesized by Pepscan", "T1 sequence (O15530 1-556)": "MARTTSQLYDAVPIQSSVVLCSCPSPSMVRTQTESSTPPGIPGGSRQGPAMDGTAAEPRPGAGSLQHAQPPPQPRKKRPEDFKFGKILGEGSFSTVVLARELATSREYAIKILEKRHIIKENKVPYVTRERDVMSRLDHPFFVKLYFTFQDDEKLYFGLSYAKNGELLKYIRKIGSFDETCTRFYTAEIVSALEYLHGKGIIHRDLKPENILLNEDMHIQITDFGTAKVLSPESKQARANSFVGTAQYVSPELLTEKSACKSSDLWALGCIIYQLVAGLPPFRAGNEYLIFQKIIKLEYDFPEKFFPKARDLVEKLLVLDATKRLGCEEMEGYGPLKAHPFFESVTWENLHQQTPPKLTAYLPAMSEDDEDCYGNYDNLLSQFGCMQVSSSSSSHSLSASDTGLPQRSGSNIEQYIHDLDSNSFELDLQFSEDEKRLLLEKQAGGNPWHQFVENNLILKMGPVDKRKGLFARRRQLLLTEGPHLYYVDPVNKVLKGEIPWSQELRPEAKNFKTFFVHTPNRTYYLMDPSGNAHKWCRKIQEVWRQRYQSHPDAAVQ", "assay": "AlphaScreen biotin-GS-022 / GST-PDK1_1-556 interaction", "type": "binding", "source_text": "163 independent experiments. (F-G) Interaction and displacement of interactions using\n164 AlphaScreen technlology. (F) Interaction of biotin-GS-022 with GST-PDK11-556 and GST-\n165 PDK11-359. N=2 independent experiments. (G) Effect of HYG8 on the interaction between\n166 biotin-GS-022 and GST-PDK11-556. N=2 independent experiments.\n167 The Thermo Fisher Scientific “PDK1 Direct” assay produced results quite different from those\n168 obtained using our PDK1 kinase assay which uses [γ32P]ATP and T308tide\n169 ([…]) as substrates. Phosphorylation of T308tide and of the alternative\n170 peptides GS-022 ([…]) and GS-023 ([…]-K(5-FAM)) was\n171 compared. GS-023 and GS-022 were phosphorylated efficiently by GST-PDK11-556, with over\n172 30 and 10-fold higher turnover than T308tide, respectively (fig. S2A). The increased\n174 GS-023 peptide provided a degree of improvement of substrate phosphorylation by PDK11-\n175 556. GST-PDK11-359, comprising only the catalytic domain but lacking the linker region and the\n176 PH domain, phosphorylated the three substrates similarly, with a slight increased turnover\n177 towards GS-023 (fig. S2B). Thus, the phosphorylation of GS-23 and GS-022, but not that of\n178 T308tide, depended on the construct used (figs. S2C-E). To assess a possible differential […]\n180 that measured the interaction of biotin-GS-022 with GST-PDK11-556 and GST-PDK11-359. […]"}, "PDK1": {"biological_target": "T2, PDK1 (Homo sapiens, UniProt O15530)", "T2 sequence (O15530 1-556)": "T1 sequence (O15530 1-556)", "assay": "Thermo Fisher Scientific/Invitrogen PDK1 cascade assay (Akt2 as substrate, no PIP3)", "type": "biochemical", "details": "10-point titration", "description": "To explore the structural basis of this effect, we synthesized additional inositol phosphate derivatives related to IP5 (Fig. 2A). […] The first was Thermo Fisher Scientific/Invitrogen PDK1 cascade assay, which uses Akt as substrate in a coupled, cascade-type assay and in which the activity of PDK1 is measured by its ability to activate Akt. The second was the “PDK1 Direct” assay, which uses a peptide substrate (Ser/Thr 07) of undisclosed sequence (table S1) as the substrate of PDK1 and a readout of FRET between coumarin and fluorescein (5-FAM). […] Scyllo-IP5 and another synthetic derivative of IP5, 2-O-(2-aminoethyl)-IP5 (AMR1474), were weak inhibitors in the same assays (10% or less inhibition at 1 μM) (table S2).\nThe commercial PDK1 activity assays were provided by Thermo Fisher Scientific as a service. […] The ¨PDK1 Direct¨ biochemical assay measures the phosphorylation of a peptide termed Ser/Thr 07 that is labeled with a donor fluorophore (coumarin) and an acceptor fluorophore (fluorescein) to create a FRET pair. The peptide substrate was first incubated with the kinase and ATP-Mg (25 μM ATP), then non-phosphorylated peptide was cleaved with a protease. The remaining FRET corresponds to the phosphorylated substrate. […]"}}}
{"smiles": "O=C(O[C@H]1[C@@H](OP(=O)(O)O)[C@H](OP(=O)(O)O)[C@@H](OP(=O)(O)O)[C@H](OP(=O)(O)O)[C@H]1OP(=O)(O)O)c1ccccc1", "note": "[HYG8, 2-O-benzoyl-IP5]", "values": [{"measurement": "effect on interaction between GS-022 and PDK1_1-556", "setting": "GST-PDK1_1-556", "value": "potently"}, {"measurement": "Hill slope, Cascade", "setting": "PDK1", "value": 2.19}, {"measurement": "IC50", "setting": "PDK1; absence of PIP3", "value": 6.42, "unit": "nM"}]}
